Results from patent US20250333405A1, “ANTAGONISTS OF GPR39 PROTEIN” (VASOCARDEA, INC., priority 2024, published 2025).

Target: T1, human GPR39 receptor (Homo sapiens, UniProt O43194)
T1 construct: PC3 Cells, Expressing the Endogenous Human GPR39 Receptor; endogenous in cells; host or cells: PC3 (human prostate adenocarcinoma) cells
T1 sequence (O43194 1-453): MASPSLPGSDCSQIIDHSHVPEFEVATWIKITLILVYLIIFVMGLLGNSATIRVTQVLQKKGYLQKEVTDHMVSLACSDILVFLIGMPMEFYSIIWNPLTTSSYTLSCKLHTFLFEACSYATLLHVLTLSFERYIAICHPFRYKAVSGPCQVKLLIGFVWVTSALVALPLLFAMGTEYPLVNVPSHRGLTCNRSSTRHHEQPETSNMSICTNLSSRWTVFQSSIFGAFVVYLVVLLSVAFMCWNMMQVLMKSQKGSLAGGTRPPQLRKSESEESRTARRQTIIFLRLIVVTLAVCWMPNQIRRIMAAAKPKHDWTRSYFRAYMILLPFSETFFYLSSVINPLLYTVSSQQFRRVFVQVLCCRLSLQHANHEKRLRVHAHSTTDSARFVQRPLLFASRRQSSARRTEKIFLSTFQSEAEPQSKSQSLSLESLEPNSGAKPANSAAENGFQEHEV
Experiment: Intracellular calcium response (FLIPR, Calcium-6) in PC3 cells, antagonism of agonist C3 (TC-G 1008) at EC90
Type: cell-based
Conditions: functional pKi (-Log10Ki) by modified Cheng-Prusoff from IC50; PC3 cells endogenously expressing human GPR39; 30 μM ZnCl2; agonist C3 (TC-G 1008) at EC90 1.5 μM
In short: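 Calcium-6-loaded cells in HEPES buffer pH 7.4 were given compound with 30 μM final ZnCl2 (0.32% DMSO) for 10 min, then challenged with 1.5 μM C3. Baseline-subtracted peak fluorescence expressed as % inhibition of the C3 response; IC50 from four-parameter logistic fit, reported as binned fpKi.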

| fpKi activity | SMILES |
| --- | --- |
| + + | O=C(Nc1ccc(-c2nnc(N3CCC(F)(F)CC3)o2)c(N2CCCC2)c1)C1CC1 [Example 100, N-[4-[5-(4,4-difluoropiperidin-1-yl)-1,3,4-oxadiazol-2-yl]-3-pyrrolidin-1-ylphenyl]cyclopropanecarboxamide] |

Same assay, conditions: functional pKi (-Log10Ki) by modified Cheng-Prusoff from IC50; PC3 cells endogenously expressing human GPR39; 30 μM ZnCl2; agonist C3 (TC-G 1008) at EC90 1.5 μM; read-out: fpKi activity

| SMILES | Ki |
| --- | --- |
| Cc1nnc(-c2ccc(C(=O)N3CCC(F)(F)CC3)c(-c3cccc(C(C)C)n3)c2)[nH]1 [Example 74] | ≤ 50.1 nM |
| Cc1nnc(-c2ccc(C(=O)N3CCC(F)(F)CC3)c(-c3cccc(C(F)(F)F)n3)c2)[nH]1 [Example 75, (4,4-difluoropiperidin-1-yl)-[4-(5-methyl-4H-1,2,4-triazol-3-yl)-2-[6-(trifluoromethyl)pyridin-2-yl]phenyl]methanone] | ≤ 50.1 nM |
| Cc1nnc(-c2ccc(C(=O)N3CCC(F)(F)CC3)c(-c3nc(C(F)(F)F)cs3)c2)[nH]1 [Example 76, (4,4-difluoro-1-piperidyl)-[4-(5-methyl-4H-1,2,4-triazol-3-yl)-2-[4-(trifluoromethyl)thiazol-2-yl]phenyl]methanone] | ≤ 50.1 nM |
| Cc1nnc(-c2ccc(C(=O)N3CCC(F)(F)CC3)c(-c3nccc(C(F)(F)F)n3)c2)[nH]1 [Example 77, (4,4-difluoro-1-piperidyl)-[4-(5-methyl-4H-1,2,4-triazol-3-yl)-2-[4-(trifluoromethyl)pyrimidin-2-yl]phenyl]methanone] | ≤ 50.1 nM |
| Cc1nnc(-c2ccc(C(=O)N3CCC(F)(F)CC3)c(-c3cccc(C4CC4)n3)c2)[nH]1 [Example 78, [2-(6-cyclopropyl-2-pyridyl)-4-(5-methyl-4H-1,2,4-triazol-3-yl)phenyl]-(4,4-difluoro-1-piperidyl)methanone] | ≤ 50.1 nM |
| Cc1nnc(-c2ccc(C(=O)N3CCC(F)(F)CC3)c(-c3cccc(C(C)(C)C)n3)c2)[nH]1 [Example 79, [2-(6-tert-butyl-2-pyridyl)-4-(5-methyl-4H-1,2,4-triazol-3-yl)phenyl]-(4,4-difluoro-1-piperidyl)methanone] | ≤ 50.1 nM |
| Cc1nnc(-c2ccc(C(=O)N3CCC(OC(F)(F)F)CC3)c(-c3ccn(C(C)(C)C)n3)c2)[nH]1 [Example 80, [2-(1-tert-butylpyrazol-3-yl)-4-(5-methyl-4H-1,2,4-triazol-3-yl)phenyl]-[4-(trifluoromethoxy)-1-piperidyl]methanone] | ≤ 50.1 nM |
| CCOC(=O)c1csc(-c2cc(C#N)ccc2C(=O)N2CCC(F)(F)CC2)n1 [Example 81, ethyl 2-[5-cyano-2-(4,4-difluoropiperidine-1-carbonyl)phenyl]thiazole-4-carboxylate] | 63.1 to 251 nM |
| CCOC(=O)c1csc(-c2cc(-c3nnc(C)[nH]3)ccc2C(=O)N2CCC(F)(F)CC2)n1 [Example 82, ethyl 2-[2-(4,4-difluoropiperidine-1-carbonyl)-5-(5-methyl-4H-1,2,4-triazol-3-yl)phenyl]thiazole-4-carboxylate] | 1260 to 6310 nM |
| CC(C)n1ccc(-c2cc(-c3cc(C(F)(F)F)n[nH]3)ccc2C(=O)N2CCC(F)(F)CC2)n1 [Example 84, (4,4-difluoro-1-piperidyl)-[2-(1-isopropylpyrazol-3-yl)-4-[5-(trifluoromethyl)-1H-pyrazol-3-yl]phenyl]methanone] | 316 to 1000 nM |
| CC(C)c1cc(-c2ccc(C(=O)N3CCC(F)(F)CC3)c(-c3ccn(C(C)C)n3)c2)[nH]n1 [Example 85, (4,4-difluoro-1-piperidyl)-[2-(1-isopropylpyrazol-3-yl)-4-(5-isopropyl-1H-pyrazol-3-yl)phenyl]methanone] | 1260 to 6310 nM |
| Cc1cc(-c2ccc(C(=O)N3CCC(F)(F)CC3)c(-c3ccn(C(C)C)n3)c2)[nH]n1 [Example 86, (4,4-difluoro-1-piperidyl)-[2-(1-isopropylpyrazol-3-yl)-4-(5-methyl-1H-pyrazol-3-yl)phenyl]methanone] | ≤ 50.1 nM |
| Cc1cnc(-c2ccc(C(=O)N3CCC(F)(F)CC3)c(-c3ccn(C(C)C)n3)c2)[nH]1 [Example 87, (4,4-difluoro-1-piperidyl)-[2-(1-isopropylpyrazol-3-yl)-4-(5-methyl-1H-imidazol-2-yl)phenyl]methanone] | 63.1 to 251 nM |
| O=C(Nc1cc(N2CCCC2)c(C(=O)N2CCS(=O)(=O)CC2)cc1Cl)C1CC1 [Example 96, N-[2-chloro-4-(1,1-dioxo-1,4-thiazinane-4-carbonyl)-5-pyrrolidin-1-ylphenyl]cyclopropanecarboxamide] | 1260 to 6310 nM |
| O=C(c1ccc(-c2nnc[nH]2)cc1N1CCCC1)N1CCC(C(F)(F)F)CC1 [Example 112, [2-pyrrolidin-1-yl-4-(4H-1,2,4-triazol-3-yl)phenyl]-[4-(trifluoromethyl)piperidin-1-yl]methanone] | 63.1 to 251 nM |

Second part, the compound after the results:

| Ki | SMILES |
| --- | --- |
| 316 to 1000 nM | O=C(Nc1ccc(C(=O)N2CCS(=O)(=O)CC2)c(C2=CCCC2)c1)C1CC1 [Example 88, N-[3-(cyclopenten-1-yl)-4-(1,1-dioxo-1,4-thiazinane-4-carbonyl)phenyl]cyclopropanecarboxamide] |
| 63.1 to 251 nM | CN1CCN(C(=O)c2ccc(NC(=O)C3CC3)cc2C2=CCCC2)C(c2ccccc2)C1 (centres unmarked) [Example 89, N-[3-(cyclopenten-1-yl)-4-(4-methyl-2-phenylpiperazine-1-carbonyl)phenyl]cyclopropanecarboxamide] |
| > 6310 nM | O=C(Nc1ccc(C(=O)N2CCS(=O)(=O)CC2)c(C2CCCC2)c1)C1CC1 [Example 90, N-[3-cyclopentyl-4-(1,1-dioxo-1,4-thiazinane-4-carbonyl)phenyl]cyclopropanecarboxamide] |
| 316 to 1000 nM | CN1CCN(C(=O)c2ccc(NC(=O)C3CC3)cc2C2CCCC2)C(c2ccccc2)C1 (centres unmarked) [Example 91, N-[3-cyclopentyl-4-(4-methyl-2-phenylpiperazine-1-carbonyl)phenyl]cyclopropanecarboxamide] |
| > 6310 nM | Cc1cc(C(=O)N2CCN(C)CC2c2ccccc2)c(N2CCCC2)cc1NC(=O)C1CC1 (centres unmarked) [Example 92, N-[2-methyl-4-(4-methyl-2-phenylpiperazine-1-carbonyl)-5-pyrrolidin-1-ylphenyl]cyclopropanecarboxamide] |
| > 6310 nM | Cc1cc(C(=O)N2CCS(=O)(=O)CC2)c(N2CCCC2)cc1NC(=O)C1CC1 [Example 93, N-[4-(1,1-dioxo-1,4-thiazinane-4-carbonyl)-2-methyl-5-pyrrolidin-1-ylphenyl]cyclopropanecarboxamide] |
| 316 to 1000 nM | Cc1c(NC(=O)C2CC2)ccc(C(=O)N2CCS(=O)(=O)CC2)c1N1CCCC1 [Example 94, N-[4-(1,1-dioxo-1,4-thiazinane-4-carbonyl)-2-methyl-3-pyrrolidin-1-ylphenyl]cyclopropanecarboxamide] |
| > 6310 nM | CN1CCN(C(=O)c2cc(Cl)c(NC(=O)C3CC3)cc2N2CCCC2)C(c2ccccc2)C1 (centres unmarked) [Example 95, N-[2-chloro-4-(4-methyl-2-phenylpiperazine-1-carbonyl)-5-pyrrolidin-1-ylphenyl]cyclopropanecarboxamide] |
| 316 to 1000 nM | CN1CCN(C(=O)c2ccc(NC(=O)C3CC3)c(Cl)c2N2CCCC2)C(c2ccccc2)C1 (centres unmarked) [Example 97, N-[2-chloro-4-(4-methyl-2-phenylpiperazine-1-carbonyl)-3-pyrrolidin-1-ylphenyl]cyclopropanecarboxide] |
| 316 to 1000 nM | O=C(Nc1ccc(C(=O)N2CCS(=O)(=O)CC2)c(N2CCCC2)c1Cl)C1CC1 [Example 98, N-[2-chloro-4-(1,1-dioxo-1,4-thiazinane-4-carbonyl)-3-pyrrolidin-1-ylphenyl]cyclopropanecarboxamide] |
| > 6310 nM | O=C(Nc1ccc(-c2nnc(N3CCCC3)o2)c(N2CCCC2)c1)C1CC1 [Example 99, N-[3-pyrrolidin-1-yl-4-(5-pyrrolidin-1-yl-1,3,4-oxadiazol-2-yl)phenyl]cyclopropanecarboxamide] |
| > 6310 nM | CC(=O)Nc1ccc(-c2nccc(N3CCCC3)n2)c(N2CCCC2)c1 [Example 101, N-[3-pyrrolidin-1-yl-4-(4-pyrrolidin-1-ylpyrimidin-2-yl)phenyl]acetamide] |
| 1260 to 6310 nM | CN1CCN(S(=O)(=O)c2ccc(NC(=O)C3CC3)cc2N2CCCC2)C(c2ccccc2)C1 (centres unmarked) [Example 102, N-[4-(4-methyl-2-phenylpiperazin-1-yl)sulfonyl-3-pyrrolidin-1-ylphenyl]cyclopropanecarboxamide] |
| 1260 to 6310 nM | CN1CCN(S(=O)(=O)c2ccc(NC(=O)C3CC3)cc2N2CCCC2)CC1 [Example 103, N-[4-(4-methylpiperazin-1-yl)sulfonyl-3-pyrrolidin-1-ylphenyl]cyclopropanecarboxamide] |
| 1260 to 6310 nM | CN(C1CCN(C(=O)c2ccc(NC(=O)C3CC3)cc2N2CCCC2)CC1)S(C)(=O)=O [Example 104, N-[4-[4-[methyl(methylsulfonyl)amino]piperidine-1-carbonyl]-3-pyrrolidin-1-ylphenyl]cyclopropanecarboxamide] |
| > 6310 nM | CS(=O)(=O)NC1CCN(C(=O)c2ccc(NC(=O)C3CC3)cc2N2CCCC2)CC1 [Example 105, N-[4-[4-(methanesulfonamido)piperidine-1-carbonyl]-3-pyrrolidin-1-ylphenyl]cyclopropanecarboxamide] |
